# In US10059721B2, “Substituted thieno[3,2-b]pyrazines for inhibiting cancer cell proliferation and inducing cancer cell apoptosis” (DONGGUK UNIVERSITY INDUSTRY-ACADEMIC COOPERATION FOUNDATION, priority 2014, dated 2018):
# Tests used:
# Format in all cases: cell-based
# [1] = test system: MDA-MB-231 (breast cancer) cell line; experiment: Cell growth inhibition experiment (SRB), MDA-MB-231; settings: Homo sapiens, incubated for 96 hours, read-out: IC50 (μM) of cancer cell lines MDA-MB-231
# Method: (§1) The cell lines below were used in order to confirm the efficacy of the compounds synthesized in Examples 1 to 27. Human PANC-1 (pancreatic cancer) and MDA-MB-231 (breast cancer) cell lines were obtained from American Type Culture Collection (ATCC; Manassas, Va.); and HN31 (head and neck cancer) and UMRC2 (kidney cancer) cell lines were secured from the United States National Institutes of Health (Bethesda, Md.). The MDA-MB-231, UMRC2, HN31, and PANC-1 cell lines were cultured in Dulbecco modified Eagle medium (DMEM) containing FBS (10%), HEPES (10 mM), penicillin (100 U/mL), and streptomycin (100 μg/mL). All cell lines were cultured in an incubator (37° C., 5% CO2).
# (§2) The 4-(aryl)-N-(2-alkoxythieno[3,2-b]pyrazin-3-yl)-piperazin-1-carboxamide derivative compounds synthesized according to Examples 1 to 27 of the present invention were treated with various human tissue-derived cancer cell lines cultured according to Experimental Example 1, and thus the inhibitory effect of the growth of human cancer cells was confirmed. The cell growth inhibition experiment was conducted using sulforhodamine B (SRB) technique (Skehan et al., J. National Cancer Institute, 1990, 82: 1107-1112). Specifically, each cell line was seeded in a 96-well plate at a density of 2 to 3×10^3 cells/well, cultured overnight, and then treated with the 4-(aryl)-N-(2-alkoxythieno[3,2-b]pyrazin-3-yl)-piperazin-1-carboxamide derivative compounds of the present invention. The experiment was repeated 3 times for each compound. Cells treated with each compound were additionally incubated for 96 hours, fixed with 10% trichloroacetic acid (TCA), and then left at 4° C. for 1 hour. The resultant was washed 3 times with distilled water. Thereafter, each cell was treated with 0.4% sulforhodamine B dissolved in 1% acetic acid, stained for 30 minutes, and then washed 4 times with 1% acetic acid. The resultant was dried in the air. After shaking the resultant in Tris solution (10 mM) for 5 minutes, the absorbance was measured at 530 nm using a Benchmark Plus Microplate reader (Bio-Rad Laboratories, Hercules, Calif.).
# (§3) In order to convert the OD530 value to the number of viable cells per each well, the measured OD530 value was compared to the standard OD530-vs.-cell number curve of each cell line. The percent survival was calculated using the following formula: % survival=Nlive cells(test)/Nlive cells(control)×100
# (§4) IC50 values were calculated by nonlinear regression analysis.
# [2] = test system: UMRC2 (kidney cancer) cell line; experiment: Cell growth inhibition experiment (SRB), UMRC2; settings: Homo sapiens, incubated for 96 hours, read-out: IC50 (μM) of cancer cell lines UMRC2
# Method: as §1, §2, §3, §4
# [3] = test system: PANC-1 (pancreatic cancer) cell line; experiment: Cell growth inhibition experiment (SRB), PANC-1; settings: Homo sapiens, incubated for 96 hours, read-out: IC50 (μM) of cancer cell lines PANC-1
# Method: as §1, §2, §3, §4
# [4] = test system: HN31 (head and neck cancer) cell line; experiment: Cell growth inhibition experiment (SRB), HN31; settings: Homo sapiens, incubated for 96 hours, read-out: IC50 (μM) of cancer cell lines HN31
# Method: as §1, §2, §3, §4
# [5] = test system: A549; experiment: Cell growth inhibition experiment (SRB), A549; settings: Homo sapiens, incubated for 96 hours, read-out: IC50 (μM) of cancer cell lines A549
# Method: as §2, §3, §4
# [6] = test system: HEK293; experiment: Cell growth inhibition experiment (SRB), HEK293; settings: Homo sapiens, incubated for 96 hours, read-out: IC50 (μM) of cancer cell lines HEK293
# Method: as §2, §3, §4
# [7] = test system: HUVEC; experiment: Cell growth inhibition experiment (SRB), HUVEC; settings: Homo sapiens, incubated for 96 hours, read-out: IC50 (μM) of cancer cell lines HUVEC
# Method: as §2, §3, §4
# [8] = test system: HT29; experiment: Cell growth inhibition experiment (SRB), HT29; settings: Homo sapiens, HT-29, incubated for 96 hours, read-out: IC50 (μM) of cancer cell lines HT29
# Method: as §2, §3, §4
# [9] = test system: SK-OV-3; experiment: Cell growth inhibition experiment (SRB), SK-OV-3; settings: Homo sapiens, incubated for 96 hours, read-out: IC50 (μM) of cancer cell lines SK-OV-3
# Method: as §2, §3, §4
SMILES,IC50 [1],IC50 [2],IC50 [3],IC50 [4],IC50 [5],IC50 [6],IC50 [7],IC50 [8],IC50 [9]
"COc1nc2ccsc2nc1NC(=O)N1CCN(c2cc(C)cc(OC(F)(F)F)c2)CC1 [Example 19, N-(2-methoxythieno[3,2-b]pyrazin-3-yl)-4-(3-methyl-5-(trifluoromethoxy)phenyl)piperazin-1-carboxamide]",< 2.5 µM,0.25 µM,0.58 µM,1.12 µM,1.52 µM,1.23 µM,0.68 µM,0.71 µM,< 2.5 µM
"COc1cc(OC)cc(N2CCN(C(=O)Nc3nc4sc(Cl)cc4nc3OC)CC2)c1 [Example 1, N-(6-chloro-2-methoxythieno[3,2-b]pyrazin-3-yl)-4-(3,5-dimethoxyphenyl)piperazin-1-carboxamide]",0.02 µM,0.03 µM,0.53 µM,0.27 µM,2.13 µM,0.63 µM,0.12 µM,0.31 µM,0.27 µM
"COc1nc2ccsc2nc1NC(=O)N1CCN(c2cc(F)cc(F)c2)CC1 [Example 12, 4-(3,5-difluorophenyl)-N-(2-methoxythieno[3,2-b]pyrazin-3-yl)piperazin-1-carboxamide]",0.05 µM,0.04 µM,0.24 µM,0.33 µM,1.28 µM,0.55 µM,0.07 µM,0.3 µM,0.29 µM
"COc1cc(OC(F)(F)F)cc(N2CCN(C(=O)Nc3nc4sccc4nc3OC)CC2)c1 [Example 25, 4-(3-methoxy-5-(trifluoromethoxy)phenyl)-N-(2-methoxythieno[3,2-b]pyrazin-3-yl)piperazin-1-carboxamide]",0.15 µM,< 2.5 µM,0.08 µM,0.17 µM,0.22 µM,0.36 µM,0.13 µM,0.25 µM,0.63 µM
"COc1cc(F)cc(N2CCN(C(=O)Nc3nc4sccc4nc3OC)CC2)c1 [Example 22, 4-(3-fluoro-5-methoxyphenyl)-N-(2-methoxythieno[3,2-b]pyrazin-3-yl)piperazin-1-carboxamide]",0.52 µM,0.21 µM,0.63 µM,0.45 µM,2.21 µM,1.12 µM,1.36 µM,1.12 µM,1.36 µM
"COc1cc(OC)cc(N2CCN(C(=O)Nc3nc4sccc4nc3OC)CC2)c1 [Example 10, 4-(3,5-dimethoxyphenyl)-N-(2-methoxythieno[3,2-b]pyrazin-3-yl)piperazin-1-carboxamide]",0.02 µM,0.03 µM,0.38 µM,0.18 µM,1.14 µM,0.56 µM,0.06 µM,0.27 µM,0.23 µM
"COc1cc(OC)cc(N2CCN(C(=O)Nc3nc4sccc4nc3OC(C)C)CC2)c1 [Example 16, 4-(3,5-dimethoxyphenyl)-N-(2-isopropoxythieno[3,2-b]pyrazin-3-yl)piperazin-1-carboxamide]",2.12 µM,< 2.5 µM,< 2.5 µM,< 2.5 µM,< 2.5 µM,< 2.5 µM,< 2.5 µM,< 2.5 µM,< 2.5 µM
"COc1nc2ccsc2nc1NC(=O)N1CCN(c2cc(C)cc(C)c2)CC1 [Example 11, 4-(3,5-dimethylphenyl)-N-(2-methoxythieno[3,2-b]pyrazin-3-yl)piperazin-1-carboxamide]",0.07 µM,0.07 µM,0.24 µM,0.41 µM,1.31 µM,0.65 µM,0.07 µM,0.31 µM,0.27 µM
